This note sets out measurements from patent US20250163038A1, “CBL-B MODULATORS AND USES THEREOF” (Nimbus Clio, Inc., priority 2021, published 2025).

Assay [1] has as its target Recombinant human Cbl-b (aa 36-427) (Homo sapiens, UniProt Q13191). The assay can be described thus: Cbl-b Biochemical Assay (TR-FRET). As to conditions: read-out: TR-FRET hCbl-b IC50. Background: In TR-FRET formats the signal depends on donor and acceptor labels being close together.
Assay [2] deals with T1, Recombinant human c-Cbl (aa 47-435) (Homo sapiens, UniProt P22681).
T1 sequence (P22681 47-435): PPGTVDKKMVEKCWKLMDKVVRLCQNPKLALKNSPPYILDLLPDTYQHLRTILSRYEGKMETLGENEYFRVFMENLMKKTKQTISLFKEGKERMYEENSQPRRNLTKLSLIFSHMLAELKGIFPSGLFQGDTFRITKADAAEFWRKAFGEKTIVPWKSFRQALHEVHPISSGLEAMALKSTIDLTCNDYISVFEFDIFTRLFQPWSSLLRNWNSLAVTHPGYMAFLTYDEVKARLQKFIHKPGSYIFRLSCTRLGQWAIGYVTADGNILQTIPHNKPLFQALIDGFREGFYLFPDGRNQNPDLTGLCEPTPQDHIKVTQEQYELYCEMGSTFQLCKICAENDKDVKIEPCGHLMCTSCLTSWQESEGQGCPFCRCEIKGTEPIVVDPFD
The assay can be described thus: c-Cbl Biochemical Assay (TR-FRET). The settings on record: hc-Cbl Biochemical Assay (TR-FRET); read-out: TR-FRET hcCbl IC50.

The term IC50 denotes the concentration that inhibits the measured activity by half.

Sequence of Recombinant human Cbl-b (aa 36-427) (Q13191 36-427): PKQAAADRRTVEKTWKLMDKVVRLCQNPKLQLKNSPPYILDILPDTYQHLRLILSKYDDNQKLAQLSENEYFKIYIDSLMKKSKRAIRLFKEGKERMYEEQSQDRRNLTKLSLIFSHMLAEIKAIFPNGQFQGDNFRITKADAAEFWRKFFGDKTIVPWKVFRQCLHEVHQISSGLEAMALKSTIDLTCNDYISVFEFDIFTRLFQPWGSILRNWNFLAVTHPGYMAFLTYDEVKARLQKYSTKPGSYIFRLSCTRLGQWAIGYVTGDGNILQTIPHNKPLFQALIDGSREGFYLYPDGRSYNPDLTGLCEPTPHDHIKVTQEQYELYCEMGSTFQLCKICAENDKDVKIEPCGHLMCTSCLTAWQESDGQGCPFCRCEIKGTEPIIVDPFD

As for `C[C@H](Cc1nncn1C)c1cccc(-c2nc3cccc(C(F)(F)F)n3n2)c1` [ACA-2, (R)-2-(3-(1-(4-methyl-4H-1,2,4-triazol-3-yl)propan-2-yl)phenyl)-5-(trifluoromethyl)-[1,2,4]triazolo[1,5-a]pyridine], the IC50 in assay [1] and in assay [2] was 10 to 50 µM each time.

On to `Cn1cnnc1CC1(c2cccc(-c3nc4cc(CN5CC[C@@H](O)C5)cc(C(F)(F)F)c4[nH]3)c2)COC1` [ACB-1, (R)-1-((2-(3-(3-((4-Methyl-4H-1,2,4-triazol-3-yl)methyl)oxetan-3-yl)phenyl)-7-(trifluoromethyl)-1H-benzo[d]imidazol-5-yl)methyl)pyrrolidin-3-ol], for which the 50% inhibitory concentration (IC50) in assay [1] is 0.2 to 1 µM; in assay [2] it was 10 to 50 µM.

Regarding `Cn1cnnc1CC1(c2cccc(-c3nc4cc(CNc5nccn5C)cc(C(F)(F)F)c4[nH]3)c2)COC1` [ACC-1, 1-Methyl-N-((2-(3-(3-((4-methyl-4H-1,2,4-triazol-3-yl)methyl)oxetan-3-yl)phenyl)-7-(trifluoromethyl)-1H-benzo[d]imidazol-5-yl)methyl)-1H-imidazol-2-amine], the IC50 in assay [1] was in the range of 0.2 to 1 µM; in assay [2], 1 to 10 µM.

Regarding `Cn1cnnc1CC1(c2cccc(-c3cc(C(F)(F)F)cn(CCO)c3=O)c2)COC1` [ACG-3, 1-(2-Hydroxyethyl)-3-(3-(3-((4-methyl-4H-1,2,4-triazol-3-yl)methyl)oxetan-3-yl)phenyl)-5-(trifluoromethyl)pyridin-2(1H)-one], the IC50 in assay [1] lay in the range of 0.2 to 1 µM; in assay [2], 10 to 50 µM.

Regarding `Cn1cnnc1CC1(c2cccc(-c3nc4cc(OCCN5CCCC5)cc(C(F)(F)F)c4[nH]3)c2)COC1` [ACJ-5, 2-(3-(3-((4-Methyl-4H-1,2,4-triazol-3-yl)methyl)oxetan-3-yl)phenyl)-5-(2-(pyrrolidin-1-yl)ethoxy)-7-(trifluoromethyl)-1H-benzo[d]imidazole], the IC50 in assay [1] and in assay [2] was 10 to 50 µM throughout.

As for `Cn1cnnc1CC1(c2cccc(-c3nc4cc(CN5CC[C@H](O)C5)cc(C(F)(F)F)c4[nH]3)c2)COC1` [ACL-1, (S)-1-((2-(3-(3-((4-Methyl-4H-1,2,4-triazol-3-yl)methyl)oxetan-3-yl)phenyl)-7-(trifluoromethyl)-1H-benzo[d]imidazol-5-yl)methyl)pyrrolidin-3-ol], the IC50 in assay [1] was 0.2 to 1 µM; in assay [2] it was 1 to 10 µM.

In the case of `Cn1cnnc1CC1(c2cccc(-c3nc4cccc(C(F)(F)F)c4o3)c2)COC1` [ACO-1, 2-(3-(3-((4-Methyl-4H-1,2,4-triazol-3-yl)methyl)oxetan-3-yl)phenyl)-7-(trifluoromethyl)benzo[d]oxazole], the IC50 in assay [1] fell in the range of 0.2 to 1 µM; in assay [2] it was 10 to 50 µM.

Turning to `CCNc1cc(-c2c(-c3nncn3C)cnn2C)cc(-c2cc(C(F)(F)F)c[nH]c2=O)n1` [ACQ-3, 6-(Ethylamino)-4-(1-methyl-4-(4-methyl-4H-1,2,4-triazol-3-yl)-1H-pyrazol-5-yl)-5′-(trifluoromethyl)-[2,3′-bipyridin]-2′(1′H)-one], the values for the IC50 in assay [1] and in assay [2] were 0.2 to 1 µM and 1 to 10 µM, respectively.

Turning to `Cn1cnnc1-c1cnn(C)c1-c1cc(Cl)nc(-c2cc(C(F)(F)F)c[nH]c2=O)c1` [ACR-3, 6-Chloro-4-(1-methyl-4-(4-methyl-4H-1,2,4-triazol-3-yl)-1H-pyrazol-5-yl)-5′-(trifluoromethyl)-[2,3′-bipyridin]-2′(1′H)-one], the IC50 in assay [1] and in assay [2] was 10 to 50 µM in each case.

Consider `CCNc1cc(-c2c(-c3nncn3C)cnn2C)cc(-c2nc3cccc(C(F)(F)F)c3s2)n1` [ACU-2, N-Ethyl-4-[2-methyl-4-(4-methyl-1,2,4-triazol-3-yl)-pyrazol-3-yl]-6-[7-(trifluoromethyl)-1,3-benzothiazol-2-yl]-pyridin-2-amine], for which the IC50 in assay [1] and in assay [2] was 10 to 50 µM each time.

Consider `COC(=O)c1cc(C(F)(F)F)c2oc(-c3cccc([C@]4(c5nncn5C)C[C@@H](C)C4)c3)nc2c1` [ADC-3, Methyl 2-(3-((1s,3s)-3-methyl-1-(4-methyl-4H-1,2,4-triazol-3-yl)cyclobutyl)phenyl)-7-(trifluoromethyl)benzo[d]oxazole-5-carboxylate], for which the values for the IC50 in assay [1] and in assay [2] were 1 to 10 µM and 10 to 50 µM, respectively.

For `Cn1cnnc1[C@]1(c2cccc(-c3nc4cc(CO)cc(C(F)(F)F)c4o3)c2)C[C@H](C)C1` [ADD-1, (2-(3-((1s,3s)-3-Methyl-1-(4-methyl-4H-1,2,4-triazol-3-yl)cyclobutyl)phenyl)-7-(trifluoromethyl)benzo[d]oxazol-5-yl)methanol], the IC50 lay in the range of 0.2 to 1 µM in assay [1] and 1 to 10 µM in assay [2].

On to `COC(=O)c1ccc2oc(-c3cccc(-c4ccc(Cl)cc4-c4nncn4C)c3)nc2c1` [ADJ-2, Methyl 2-[4′-chloro-2′-(4-methyl-1,2,4-triazol-3-yl)-[1,1′-biphenyl]-3-yl]-1,3-benzoxazole-5-carboxylate], for which the IC50 in assay [1] and in assay [2] was 1 to 10 µM throughout.

As to `Cn1cnnc1-c1cc(F)ccc1-c1cc(Cl)nc(-c2nc3cc(CO)cc(C(F)(F)F)c3[nH]2)c1` [ADX-3, (2-{6-Chloro-4-[4-fluoro-2-(4-methyl-1,2,4-triazol-3-yl)phenyl]pyridin-2-yl}-7-(trifluoromethyl)-1H-1,3-benzodiazol-5-yl)methanol], the IC50 in assay [1] and in assay [2] was 10 to 50 µM throughout.

For `COC(=O)c1cc(OC)c2oc(-c3cccc([C@]4(c5nncn5C)C[C@@H](C)C4)c3)nc2c1` [AEA-1, Methyl 7-methoxy-2-{3-[(1r,3s)-3-methyl-1-(4-methyl-1,2,4-triazol-3-yl)cyclobutyl]phenyl}-1,3-benzoxazole-5-carboxylate], the IC50 in assay [1] and in assay [2] was 10 to 50 µM in each case.

Regarding `COc1cc(CO)cc2nc(-c3cccc([C@]4(c5nncn5C)C[C@@H](C)C4)c3)oc12` [AEB-1, (7-Methoxy-2-{3-[(1r,3s)-3-methyl-1-(4-methyl-1,2,4-triazol-3-yl)cyclobutyl]phenyl}-1,3-benzoxazol-5-yl)methanol], the IC50 in assay [1] and in assay [2] was 1 to 10 µM in each case.

Take `COC(=O)c1ccc2[nH]c(-c3cc(-c4ccc(F)cc4-c4nncn4C)cc(C4CC4)n3)nc2c1` [AED-3, Methyl 2-(6-cyclopropyl-4-(4-fluoro-2-(4-methyl-4H-1,2,4-triazol-3-yl)phenyl)pyridin-2-yl)-1H-benzo[d]imidazole-5-carboxylate]: the IC50 in assay [1] and in assay [2] was 10 to 50 µM each time.

On to `Cn1cnnc1-c1cc(F)ccc1-c1cc(-c2nc3cc(CO)ccc3[nH]2)nc(C2CC2)c1` [AEE-1, (2-(6-Cyclopropyl-4-(4-fluoro-2-(4-methyl-4H-1,2,4-triazol-3-yl)phenyl)pyridin-2-yl)-1H-benzo[d]imidazol-5-yl)methanol], for which the IC50 in assay [1] and in assay [2] was 1 to 10 µM each time.

Regarding `CCNc1cc(-c2ccc(F)cc2-c2nncn2C)cc(-c2nc3cccc(C(F)(F)F)c3o2)n1` [AEJ-4, N-Ethyl-4-[4-fluoro-2-(4-methyl-1,2,4-triazol-3-yl)phenyl]-6-[7-(trifluoromethyl)-1,3-benzoxazol-2-yl]pyridin-2-amine], the IC50 in assay [1] lay in the range of 0.2 to 1 µM; in assay [2] it was 1 to 10 µM.

As for `Cn1cnnc1-c1cc(F)ccc1-c1cccc(-c2nc3cc(CO)ccc3o2)c1` [AJ-3, (2-(4′-Fluoro-2′-(4-methyl-4H-1,2,4-triazol-3-yl)-[1,1′-biphenyl]-3-yl)benzo[d]oxazol-5-yl)methanol], the IC50 in assay [1] and in assay [2] was 10 to 50 µM each time.

In the case of `Cn1cnnc1-c1cc(F)ccc1-c1cccc(-c2nc3ccccc3o2)c1` [AR-2, 2-(4′-Fluoro-2′-(4-methyl-4H-1,2,4-triazol-3-yl)-[1,1′-biphenyl]-3-yl)benzo[d]oxazole], the IC50 in assay [1] and in assay [2] was 10 to 50 µM throughout.

`COC(OC)c1ccc2oc(-c3cccc(-c4ccc(F)cc4-c4nncn4C)c3)nc2c1` [AT-1, 5-(Dimethoxymethyl)-2-(4′-fluoro-2′-(4-methyl-4H-1,2,4-triazol-3-yl)-[1,1′-biphenyl]-3-yl)benzo[d]oxazole]: the IC50 in assay [1] and in assay [2] was 10 to 50 µM in each case.

For the molecule `Cn1cnnc1-c1cc(C#N)ccc1-c1cccc(-c2nc3cccc(C(F)(F)F)c3o2)c1` [AU-1, 2-(4-Methyl-4H-1,2,4-triazol-3-yl)-3′-(7-(trifluoromethyl)benzo[d]oxazol-2-yl)-[1,1′-biphenyl]-4-carbonitrile], the half-inhibitory concentration (IC50) was in the range of 0.2 to 1 µM in assay [1] and 10 to 50 µM in assay [2].

On to `CC(Cc1nncn1C)c1cccc(-c2nc3ccc(OCCN(C)C)c(C(F)(F)F)c3[nH]2)c1` (stereo not shown) [AW-4, N,N-dimethyl-2-((2-(3-(1-(4-methyl-4H-1,2,4-triazol-3-yl)propan-2-yl)phenyl)-7-(trifluoromethyl)-1H-benzo[d]imidazol-6-yl)oxy)ethan-1-amine], for which the IC50 in assay [1] and in assay [2] was 10 to 50 µM each time.

On to `CC(Cc1nncn1C)c1cccc(-c2nc3ccc(OCCN4CCCC4)c(C(F)(F)F)c3[nH]2)c1` (stereo not shown) [AX-3, 2-(3-(1-(4-Methyl-4H-1,2,4-triazol-3-yl)propan-2-yl)phenyl)-6-(2-(pyrrolidin-1-yl)ethoxy)-7-(trifluoromethyl)-1H-benzo[d]imidazole], for which the IC50 in assay [1] and in assay [2] was 10 to 50 µM each time.

Turning to `CN(C)CCOc1ccc2nc(-c3cccc(C4(Cc5nncn5C)COC4)c3)[nH]c2c1C(F)(F)F` [AZ-1, N,N-Dimethyl-2-((2-(3-(3-((4-methyl-4H-1,2,4-triazol-3-yl)methyl)oxetan-3-yl)phenyl)-7-(trifluoromethyl)-1H-benzo[d]imidazol-6-yl)oxy)ethan-1-amine], the IC50 in assay [1] and in assay [2] was 10 to 50 µM in each case.
